This note sets out measurements from patent US10028960B2, “Pyrimidine compounds as JAK kinase inhibitors” (THERAVANCE BIOPHARMA R&D IP, LLC, priority 2016, dated 2018).

Data set [1] in a line: Determination of absorption in cannulated rats. In kind it is in vivo, Sprague Dawley rats. The conditions noted are these: rat. The protocol:
Oral bioavailability (F %), fraction absorbed (Fa %) and fraction escaping hepatic clearance (Fh %) were determined in Sprague Dawley rats from the following two studies:
(1) Pharmacokinetics in rats following an IV dose of test compound: Following IV dosing, plasma samples were typically collected from 0-6 hr. Drug levels were determined using an LC-MS-MS method. The resulting drug levels were used to compute the IV pharmacokinetic parameters: AUC IV and Dose IV.
(2) Rats that have been cannulated in their portal vein (PV) and also in their jugular vein (JV) were dosed orally with test compound. Following oral dosing, plasma samples were typically collected from 0-6 hr from both the portal vein and the jugular vein. Drug levels were determined using an LC-MS-MS method. The resulting drug levels were used to compute the following pharmacokinetic parameters: AUC PO PV, AUC PO JV, and Dose PO.
Using data derived from the above studies, the oral bioavailability F %, and the quantities Fa % and Fh % were calculated from the following formulas: F %=(AUC PO JV/AUC IV)*(Dose IV/Dose PO)*100 Fa %=(AUC PO PV/AUC IV)*(Dose IV/Dose PO)*100 Fh %=AUC PO JV/AUC PO PV
AUC PO JV=Area under the curve following oral dose and plasma collected from the jugular vein
AUC PO PV=Area under the curve following oral dose and plasma collected from the portal vein
AUC IV=Area under the curve following an intravenous dose
Dose IV=Intravenous Dose in mg/kg
Dose PO=Oral Dose in mg/kg

For data set [2], the system named is IL-13 induced STAT6 phosphorylation in HT-29 human colorectal adenocarcinoma cells. As to the kind of experiment: Cellular JAK potency assay: inhibition of IL-13 induced STAT6 phosphorylation. In kind it is cell-based. The conditions noted are these: Homo sapiens.
The subject of data set [3] is mouse splenic NK, B and T cells. The conditions noted are these: in vivo, po. The protocol:
Depletion of mouse splenic cells is an experimental model of immunosuppression (Kudlacz et al., Am. J. of Transplantation, 2004, 4, 51-57). The compound of Example 2 was assessed in the mouse splenic cell model following the same treatment paradigm as that used in the oxazolone-induced colitis model (Assay 8).
The compound (1, 10 and 100 mg/kg, BID) and tofacitinib (30 and 60 mg/kg, BID) as a positive control were dosed orally for three days to naïve mice. Spleens were harvested 1 h post last dose and crushed immediately for cell subtype staining. Prior to fixation, fluorophore-labelled antibodies for CD19 (FITC; B cells), CD3e (PE; pan T cells) and DX5 (APC; NK cells) were incubated with splenocyte samples from each animal to allow for simultaneous, multiple subtype % analysis on the flow cytometer. The number of total spleen cells for each animal was measured by Scepter™ 2.0 Handheld Automated Cell Counter.
The absolute number of lymphocyte subtype population (e.g., splenic B, T and NK cells) was calculated from the percentage of each subtype times total spleen cells for each animal. A one way ANOVA, with Dunnett's post hoc test, was used to compare the splenic lymphocytes number of the vehicle and test compound groups. The a level was set at p<0.05. Data were presented as the mean±SEM for each group.

Read-outs that look alike come from different tables or passages of the source. Where only a bound is given, the exact number is not on record here.

On to `COc1cc(Nc2cc(CO)[nH]n2)nc(N(C)[C@@H]2C[C@H]3CCC[C@@H](C2)N3S(=O)(=O)N2CC(C#N)C2)n1` [Example 2, 1-(((1R,3s,5S)-3-((4-((5-(Hydroxymethyl)-1H-pyrazol-3-yl)amino)-6-methoxypyrimidin-2-yl)(methyl)amino)-9-azabicyclo[3.3.1]nonan-9-yl)sulfonyl)azetidine-3-carbonitrile], for which, in data set [1] (Sprague Dawley, plasma (jugular vein), oral vs IV, read-out: oral bioavailability (F %)), the bioavailability (commonly the share of a dose that reaches the circulation, judged against a reference dose that is usually intravenous) is below 5%. Moreover, in data set [1] (oral, portal vein), the “absorption at the portal vein (Fa %)” value was “less than 25%”. Besides, the IC50 in data set [2] (HT-29, cellular assay, Assay 2, read-out: IC50 for inhibition of IL-13) was at most 0.05 µM; in data set [2] (IL-13 induced STAT6 phosphorylation, HT-29 cells, read-out: HT-29 (pIC50) (converted)) it was 0.0316 to 0.2 µM. In data set [3], the “treatment effect on B and T cell populations” value is listed as “No treatment effect”.
